Each structure is given as a SMILES string. ≈ marks a conversion by molar mass, not a printed value. Like-named read-outs stand apart in the source and are kept apart here.

What all share (assay type): cell-based
In experiment [1] the test system is Enterobacter cloacae OMNF 1174. As to the kind of experiment: MIC test, agar dilution with Steers multiwell inoculator. Conditions: OMNF1174, TSA dishes, 24 h at 35°C, read-out: Minimum Inhibiting Concentration. The method, boiled down: (§1)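 Compounds are dissolved in DMSO plus 1N NaOH at 2560 µg/ml, serially halved and mixed into molten TSA, giving 64 µg/ml per dish at the top. Dried plates are inoculated with 1-2.10⁷ cfu/ml bacteria and read after 24 h at 35°C.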
(In general: In agar dilution, organisms are placed on agar that contains the substance at set levels.)

Experiment [2] has as its system Staphylococcus aureus ATCC 6538. The experiment is described as above. Conditions: ATCC6538, TSA dishes, 24 h at 35°C, read-out: Minimum Inhibiting Concentration. The method, boiled down:
as §1

The next experiment concerns Shighella enteritidis. The experiment is described as above. Conditions: TSA dishes, 24 h at 35°C, read-out: Minimum Inhibiting Concentration. An outline of the steps:
as §1

In a further experiment the test system is Escherichia coli 120. The description is as above. Conditions: TSA dishes, 24 h at 35°C, read-out: Minimum Inhibiting Concentration. The method, boiled down:
as §1

Experiment [3] relates to Enterobacter cloacae OMNF 1153. The experiment is described as above. Conditions: OMNF1153, TSA dishes, 24 h at 35°C, read-out: Minimum Inhibiting Concentration. The method, boiled down: as §1
For experiment [4], the system named is Acinebacter calcoloaceticus OSMPV 1130. Described as above. Conditions: TSA dishes, 24 h at 35°C, read-out: Minimum Inhibiting Concentration. An outline of the steps:
as §1

Experiment [5] relates to Pseudomonas aeruginosa ATCC 9027. The description is as above. Conditions: ATCC9027, TSA dishes, 24 h at 35°C, read-out: Minimum Inhibiting Concentration. An outline of the steps:
as §1

Experiment [6] deals with Staphylococcus epidermidis CPHL A2. The description is as above. Conditions: CPHLA2, TSA dishes, 24 h at 35°C, read-out: Minimum Inhibiting Concentration. An outline of the steps: as §1
The test system of experiment [7] is Pseudomonas aeruginosa CNUR 4. The experiment is described as above. Conditions: CNUR4, TSA dishes, 24 h at 35°C, read-out: Minimum Inhibiting Concentration. The method, boiled down:
as §1

Experiment [8] concerns Klebsiella pneumoniae ATCC 10031. The description is as above. Conditions: ATCC10031, TSA dishes, 24 h at 35°C, read-out: Minimum Inhibiting Concentration. The method, boiled down: as §1
Experiment [9] relates to Escherichia coli ATCC 8739. Described as above. Conditions: ATCC8739, TSA dishes, 24 h at 35°C, read-out: Minimum Inhibiting Concentration. The method, boiled down: as §1
A further experiment concerns Escherichia coli ISF 432. Described as above. Conditions: ISF432, TSA dishes, 24 h at 35°C, read-out: Minimum Inhibiting Concentration. The method, boiled down: as §1
Experiment [10] has as its system Staphylococcus epidermidis HCF Berset C. Described as above. Conditions: TSA dishes, 24 h at 35°C, read-out: Minimum Inhibiting Concentration. An outline of the steps: as §1
For experiment [11], the system named is Staphylococcus aureus MPR 5. The description is as above. Conditions: MPR5, TSA dishes, 24 h at 35°C, read-out: Minimum Inhibiting Concentration. The method, boiled down:
as §1

Another experiment has as its system Proteus vulgaris CNUR 6. The description is as above. Conditions: CNUR6, TSA dishes, 24 h at 35°C, read-out: Minimum Inhibiting Concentration. The method, boiled down:
as §1

Experiment [12] relates to Streptococcus facealis LEP Br. The experiment is described as above. Conditions: TSA dishes, 24 h at 35°C, read-out: Minimum Inhibiting Concentration. An outline of the steps:
as §1

Experiment [13] concerns Providencia stuardii CNUR 5. Described as above. Conditions: CNUR5, TSA dishes, 24 h at 35°C, read-out: Minimum Inhibiting Concentration. An outline of the steps: as §1
For the next experiment, the system named is Escherichia coli CNUR 8. The description is as above. Conditions: CNUR8, TSA dishes, 24 h at 35°C, read-out: Minimum Inhibiting Concentration. The method, boiled down:
as §1

Experiment [14] has as its system Pseudomonas aeruginosa CNUR 2. The experiment is described as above. Conditions: CNUR2, TSA dishes, 24 h at 35°C, read-out: Minimum Inhibiting Concentration. An outline of the steps:
as §1

The next experiment concerns Escherichia coli CNUR 1. The description is as above. Conditions: CNUR1, TSA dishes, 24 h at 35°C, read-out: Minimum Inhibiting Concentration. An outline of the steps: as §1
The subject of another experiment is Gram +. Description: MIC test, average over the 5 gram-positive test germs. Conditions: 24 h. The method, boiled down:
as §1

Another experiment relates to Gram -. As to the kind of experiment: MIC test, average over the 15 gram-negative test germs. Conditions: 24 h. The method, boiled down:
as §1

The mark [15] stands for this setting: geometrical average of the MIC over the 5 Gram + strains, read-out: Geometrical Average.
[16] abbreviates: geometrical average of the MIC over the 15 Gram - strains, read-out: Geometrical Average.
Where [17] appears, read: mean log of the MIC over the 15 Gram - strains, read-out: Log (converted).

Turning to `Cc1c(N2CCN(C)CC2)c(N)cc2c(=O)c(C(=O)O)cn(C3CC3)c12` [Compound 33], the MIC in experiment [1] is 0.06 µg/mL (≈ 0.168 µM); in experiment [2] it was 0.5 µg/mL (≈ 1.4 µM); with Shighella enteritidis it was 0.06 µg/mL (≈ 0.168 µM); with Escherichia coli 120, 0.06 µg/mL (≈ 0.168 µM); in [3], 0.25 µg/mL (≈ 0.701 µM); in [4], 2 µg/mL (≈ 5.61 µM). In addition, the MIC worked out at 2 µg/mL (≈ 5.61 µM) in experiment [5]; 1 µg/mL (≈ 2.81 µM) in experiment [6]; 16 µg/mL (≈ 44.9 µM) in experiment [7]; 0.03 µg/mL (≈ 0.0842 µM) in experiment [8]; 0.06 µg/mL (≈ 0.168 µM) in experiment [9]; 0.03 µg/mL (≈ 0.0842 µM) in the experiment on Escherichia coli ISF 432. Also, the MIC in experiment [10] was found to be 0.5 µg/mL (≈ 1.4 µM); in experiment [11], 1 µg/mL (≈ 2.81 µM); in the experiment on Proteus vulgaris CNUR 6, 8 µg/mL (≈ 22.4 µM); in experiment [12] it was 8 µg/mL (≈ 22.4 µM); in [13], 2 µg/mL (≈ 5.61 µM); with Escherichia coli CNUR 8, 0.06 µg/mL (≈ 0.168 µM). The MIC is 8 µg/mL (≈ 22.4 µM) in [14]; 0.06 µg/mL (≈ 0.168 µM) in the experiment with Escherichia coli CNUR 1; 1.15 µg/mL in the experiment with Gram + (setting [15]); 1.15 µg/mL (≈ 3.22 µM) in the experiment on Gram + (read-out: Log (converted)); 0.338 µg/mL (≈ 0.948 µM) in the experiment with Gram - (setting [16]); 0.338 µg/mL (≈ 0.948 µM) in the experiment with Gram - (setting [17]).
Consider `CN1CCN(c2nc3c(c(N)c2N)c(=O)c(C(=O)O)cn3C2CC2)CC1` [Compound 42], for which the MIC is 1 µg/mL (≈ 2.79 µM) in experiment [1]; 2 µg/mL (≈ 5.58 µM) in experiment [2]; 0.5 µg/mL (≈ 1.4 µM) with Shighella enteritidis; 0.25 µg/mL (≈ 0.698 µM) with Escherichia coli 120; 1 µg/mL (≈ 2.79 µM) in [3]; 4 µg/mL (≈ 11.2 µM) in [4]. The MIC in [5] stood at 8 µg/mL (≈ 22.3 µM); in experiment [6], 4 µg/mL (≈ 11.2 µM); in experiment [7], 128 µg/mL (≈ 357 µM); in [8] it was 0.06 µg/mL (≈ 0.167 µM); in experiment [9] it was 0.06 µg/mL (≈ 0.167 µM); in the experiment on Escherichia coli ISF 432, 0.06 µg/mL (≈ 0.167 µM). For the same compound, the MIC in experiment [10] was 4 µg/mL (≈ 11.2 µM); in experiment [11], 2 µg/mL (≈ 5.58 µM); in the experiment on Proteus vulgaris CNUR 6, 64 µg/mL (≈ 179 µM); in experiment [12], 16 µg/mL (≈ 44.6 µM); in experiment [13], 4 µg/mL (≈ 11.2 µM); in the experiment with Escherichia coli CNUR 8, 0.25 µg/mL (≈ 0.698 µM). Besides, the MIC in experiment [14] was 16 µg/mL (≈ 44.6 µM); in the experiment with Escherichia coli CNUR 1, 1 µg/mL (≈ 2.79 µM); with Gram + (read-out: Log (converted)), 4 µg/mL (≈ 11.2 µM); in the experiment on Gram - (setting [16]), 1.37 µg/mL (≈ 3.83 µM); with Gram - (setting [17]), 1.37 µg/mL (≈ 3.82 µM).
As to `CC1CN(c2cc3c(cc2N)c(=O)c(C(=O)O)cn3C2CC2)CC(C)N1` (centres unmarked) [Compound 11], the MIC in experiment [1] was 0.5 µg/mL (≈ 1.4 µM); in experiment [2], 8 µg/mL (≈ 22.4 µM); with Shighella enteritidis it was 0.25 µg/mL (≈ 0.701 µM); in the experiment with Escherichia coli 120, 0.12 µg/mL (≈ 0.337 µM); in experiment [3] it was 0.5 µg/mL (≈ 1.4 µM); in experiment [4] it was 8 µg/mL (≈ 22.4 µM). Further, the MIC in experiment [5] was 2 µg/mL (≈ 5.61 µM); in experiment [6] it was 2 µg/mL (≈ 5.61 µM); in [7] it was 64 µg/mL (≈ 180 µM); in [8], 0.03 µg/mL (≈ 0.0842 µM); in experiment [9] it was 0.03 µg/mL (≈ 0.0842 µM); in the experiment with Escherichia coli ISF 432 it was 0.03 µg/mL (≈ 0.0842 µM). In addition, the MIC in experiment [10] was 4 µg/mL (≈ 11.2 µM); in experiment [11] it was 8 µg/mL (≈ 22.4 µM); in the experiment on Proteus vulgaris CNUR 6 it was 64 µg/mL (≈ 180 µM); in experiment [12], 32 µg/mL (≈ 89.8 µM); in experiment [13], 2 µg/mL (≈ 5.61 µM); with Escherichia coli CNUR 8, 0.25 µg/mL (≈ 0.701 µM). For the same compound, the MIC in experiment [14] is 8 µg/mL (≈ 22.4 µM); in the experiment with Escherichia coli CNUR 1, 0.25 µg/mL (≈ 0.701 µM); with Gram + (setting [15]) it was 6.96 µg/mL; in the experiment with Gram + (read-out: Log (converted)) it was 6.97 µg/mL (≈ 19.5 µM); in the experiment with Gram - (setting [16]), 0.75 µg/mL (≈ 2.1 µM); with Gram - (setting [17]), 0.75 µg/mL (≈ 2.1 µM).

The values above are taken from EP0531958A1, “6-Aminoquinolones, their synthesis and their use as antibacterial agents” (MEDIOLANUM FARMACEUTICI S.P.A., priority 1991, dated 1993).
